Data on one molecule can be found in patent US10226453B2, “3-(1H-indol-2-yl)-1H-pyrazolo[4,3-B]pyridines and therapeutic uses thereof” (Samumed, LLC, priority 2015, dated 2019).

pEC50: −log10 of the molar value.

What all share (assay type): cell-based
One assay concerns SW480 colon cancer cells. Kind of assay: Cell viability assay (CellTiter-Blue), SW480 colon cancer cells. The conditions noted are these: Homo sapiens, 96 h, four days, CellTiter-Blue. The procedure, abridged:
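SW480 cells (~2×10^3/well) exposed four days at 37 °C to 8-point 1:3 dilutions, 10 μM down to 0.0045 μM. Viability from resazurin reduction (CellTiter-Blue, ~3 h, Ex 560/Em 590); EC50 by non-linear regression, or percent inhibition at 10 μM where EC50 exceeds 10 μM.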
For orientation: The colour change of resazurin is a common sign of viable cells or microbes.

Assay [1] deals with Wnt activity (Sp5-Luc reporter, SW480 colon carcinoma cells). In words: Wnt activity screening assay: Sp5-Luc reporter gene in SW480 colon carcinoma cells. The conditions noted are these: Homo sapiens, overnight incubation, 10-point curve from 10 μM. The procedure, abridged: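 Luminescence (BrightGlo) was normalised to DMSO-only wells and fitted with a four-parameter variable-slope model for EC50; beyond 10 μM, % inhibition at 10 μM is given. Stable Sp5-Luc SW480 reporter cells, 4,000/well in 1% FBS, were exposed overnight at 37 °C to compounds, top 10 μM, 1:3 dilutions, 0.1% DMSO.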
For orientation: In a reporter assay the amount or activity of a reporter protein is the signal.

The subject of another assay is IL-6 (THP-1 cells). Kind of assay: IL-6 inhibition in LPS-stimulated THP-1 human monocyte cells (HTRF). The note with it: LPS 500 ng/mL, 22 hours, IL6 HTRF. The procedure, abridged:
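Readout is the 665/620 nm HTRF ratio for secreted IL-6, normalized to DMSO wells, with EC50 from a variable-slope four-parameter fit, or % inhibition at 10 μM when above 10 μM. Cells (1% FBS, 24 h beforehand) got compound for 2 h, then LPS 500 ng/mL for 22 h at 37° C; top dose 10 μM, 0.1% DMSO.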
(In TR-FRET formats the signal depends on donor and acceptor labels being close together.)

The subject of assay [2] is primary human fibroblasts derived from IPF patients (LL29 cells) treated with TGF-β1. Kind of assay: Inhibition of the fibrotic process: αSMA staining in TGF-β1 treated primary human fibroblasts from IPF patients (LL29 cells). The note with it: Fibroblast, 96 h, TGF-β1 20 ng/mL, 4 days, % αSMA positive cells. The procedure, abridged: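 EC50 values come from non-linear fits of the αSMA-positive percentage among SYTOX-excluded live cells, normalized to TGF-β1 plus DMSO controls, or appear as % inhibition at 10 μM when above 10 μM. Fibrosis was induced in IPF-derived LL29 fibroblasts by 20 ng/mL TGF-β1 over 4 days, with 1:2 compound dilutions from 10 μM.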

With `CC(C)Nc1cncc(-c2ccc3[nH]nc(-c4cc5ncccc5[nH]4)c3n2)c1` [Compound 516, 5-(3-(1H-Pyrrolo[3,2-b]pyridin-2-yl)-1H-pyrazolo[4,3-b]pyridin-5-yl)-N-isopropylpyridin-3-amine], the pEC50 in the assay on SW480 colon cancer cells was 6.84; in assay [1] it was 7.21; in the assay with IL-6 (THP-1 cells), 7.43; in assay [2] it was 5.71.

Usually pEC50 stands for the EC50 on a negative log10 scale, so that one unit is a factor of ten. High values mean a small EC50, low ones a large EC50.
